Assay in all cases: In vitro antifungal activity (IC80), broth micro-dilution
Format in all cases: cell-based
In general terms: In broth dilution the organism is exposed to a series of concentrations in liquid medium.

The test system of experiment [1] is Rhizopus oryzea (CFF1118). Conditions: 80% inhibitory concentration, YNB medium solidified with 0.2% low melting point agarose, 1-2 days at 35° C., read-out: In vitro antifungal activity (IC80) R. oryzea (CFF1118). The method, then: (§1) In vitro antifungal activities of 1-(1H-1,2,4-triazol-1-yl)butan-2-ol derivatives of the formula (I) of the present invention were evaluated by determining the 80% inhibitory concentration (IC80), which was calculated as the lowest concentration of an antifungal to inhibit the growth of fungus to 20% turbidity compared with the drug-free control growth spectrophotometrically. The IC80 values were determined by the broth micro-dilution procedure based on NCCLS Approved Standard with the following minor modifications:
(§2) National Committee for Clinical Laboratory Standards. (1997) Reference method for broth dilution antifungal susceptibility testing for yeasts. Approved standard.
(§3) Yeast Nitrogen Base (YNB; Difco Lab.) supplemented with 1% glucose and 0.25% K2HPO4 was used as testing medium for yeast, the same medium solidified with 0.2% low melting point agarose (BRL) was used for filamentous fungi. Inoculum size was 1-3×10^4 cells/ml, and incubation was performed for 1-2 days at 35° C.
(§4) The inhibitory activity of 1-(1H-1,2,4-triazol-1-yl)butan-2-ol derivatives of the formula (I) against in vitro growth of Candida albicans, Aspergillus fumigatus, Rhizopus oryzea, and Absidia corymbifera is summarized in Table 1 comparing with 2-(2,4-difluorophenyl)-1,3-bis(1H-1,2,4-triazol-1-ylmethyl)propan-2-ol (Fluconazole; Pfizer).

The test system of experiment [2] is Aspergillus fumigatus (437). The note with it: 80% inhibitory concentration, YNB medium solidified with 0.2% low melting point agarose, 1-2 days at 35° C. The method, then: as §1, §2, §3, §4
Experiment [3] relates to Candida albicans (CY1002). Conditions: 80% inhibitory concentration, YNB medium with 1% glucose and 0.25% K2HPO4, 1-2 days at 35° C. The method, then: as §1, §2, §3, §4
The subject of experiment [4] is Absidia corymbifera (CF1001). Conditions: Lichtheimia corymbifera; 80% inhibitory concentration; YNB medium solidified with 0.2% low melting point agarose; 1-2 days at 35° C.; read-out: In vitro antifungal activity (IC80) A. cormybifera (CF1001). As to the method: as §1, §2, §3, §4

Converted amounts (≈) assume the structure as drawn.

`CCc1csc(-c2ccc(-c3csc([C@H](C)[C@](O)(Cn4cncn4)c4ccc(F)cc4F)n3)cc2)n1` [Example 7, (2R,3R)-2-(2,4-Difluorophenyl)-3-{4-[4-(4-ethylthiazol-2-yl)phenyl]thiazol-2-yl}-1-(1H-1,2,4-triazol-1-yl)butan-2-ol]: the IC80 turned out to be 0.069 µg/mL (≈ 0.132 µM) in experiment [1], 0.39 µg/mL (≈ 0.745 µM) in experiment [2], 0.024 µg/mL (≈ 0.0458 µM) in experiment [3] and 0.34 µg/mL (≈ 0.649 µM) in experiment [4].
For `CCOC(=O)c1csc(-c2ccc(-c3csc([C@H](C)[C@](O)(Cn4cncn4)c4ccc(F)cc4F)n3)cc2)n1` [Example 9, 2-(4-{2-[(1R,2R)-2-(2,4-Difluorophenyl)-2-hydroxy-1-methyl-3-(1H-1,2,4-triazol-1-yl)propyl]thiazol-4-yl}phenyl)thiazole-4-carboxylic acid ethyl ester] the same measures were 0.036 µg/mL (≈ 0.0634 µM), 0.5 µg/mL (≈ 0.881 µM), 0.022 µg/mL (≈ 0.0388 µM) and 0.17 µg/mL (≈ 0.299 µM).
Consider `C[C@@H](c1nc(-c2ccc(-c3csnn3)cc2)ns1)[C@](O)(Cn1cncn1)c1ccc(F)cc1F` [Example 1, (2R,3R)-2-(2,4-Difluorophenyl)-3-{3-[4-(1,2,3-thiadiazol-4-yl)phenyl]-1,2,4-thiadiazol-5-yl}-1-(1H-1,2,4-triazol-1-yl)butan-2-ol], for which the 80% effect concentration (IC80) in experiment [1] was 0.0023 µg/mL (≈ 0.00462 µM); in experiment [2], 0.11 µg/mL (≈ 0.221 µM); in experiment [3] it was 0.00093 µg/mL (≈ 0.00187 µM); in experiment [4], 0.0057 µg/mL (≈ 0.0115 µM).
For `Cc1nc(-c2ccc(-c3csc([C@H](C)[C@](O)(Cn4cncn4)c4ccc(F)cc4F)n3)cc2)ns1` [Example 18, (2R,3R)-2-(2,4-Difluorophenyl)-3-(4-{4-[5-methyl-(1,2,4-thiadiazol-3-yl)]phenyl}thiazol-2-yl)-1-(1H-1,2,4-triazol-1-yl)butan-2-ol] the same measures were 0.046 µg/mL (≈ 0.0901 µM), 0.28 µg/mL (≈ 0.548 µM), 0.0031 µg/mL (≈ 0.00607 µM) and 0.19 µg/mL (≈ 0.372 µM).
`C[C@@H](c1nc(-c2ccc(-c3csnn3)cc2)cs1)[C@](O)(Cn1cncn1)c1ccc(F)cc1F` [Example 3, (2R,3R)-2-(2,4-Difluorophenyl)-3-{4-[4-(1,2,3-thiadiazol-4-yl)phenyl]thiazol-2-yl}-1-(1H-1,2,4-triazol-1-yl)butan-2-ol]: the IC80 was 0.0029 µg/mL (≈ 0.00584 µM) in experiment [1], 0.14 µg/mL (≈ 0.282 µM) in experiment [2], 0.011 µg/mL (≈ 0.0222 µM) in experiment [3] and 0.024 µg/mL (≈ 0.0483 µM) in experiment [4].
Take `CCc1nc(-c2ccc(-c3csc([C@H](C)[C@](O)(Cn4cncn4)c4ccc(F)cc4F)n3)cc2)ns1` [Example 19, (2R,3R)-2-(2,4-Difluorophenyl)-3-(4-{4-[5-ethyl-(1,2,4-thiadiazol-3-yl) ]phenyl}thiazol-2-yl)-1-(1H-1,2,4-triazol-1-yl)butan-2-ol]: the IC80 in experiment [1] was 0.044 µg/mL (≈ 0.0839 µM); in experiment [2], 0.3 µg/mL (≈ 0.572 µM); in experiment [3] it was 0.016 µg/mL (≈ 0.0305 µM); in experiment [4], 0.25 µg/mL (≈ 0.477 µM).
In the case of `C[C@@H](c1nc(-c2ccc(-c3nccs3)cc2)cs1)[C@](O)(Cn1cncn1)c1ccc(F)cc1F` [Example 5, (2R,3R)-2-(2,4-Difluorophenyl)-3-{4-[4-(thiazol-2-yl)phenyl]thiazol-2-yl}-1-(1H-1,2,4-triazol-1-yl)butan-2-ol], the IC80 in experiment [1] stood at 0.0047 µg/mL (≈ 0.00948 µM); in experiment [2], 0.35 µg/mL (≈ 0.706 µM); in experiment [3], 0.0059 µg/mL (≈ 0.0119 µM); in experiment [4] it was 0.3 µg/mL (≈ 0.605 µM).
For the compound `C[C@@H](c1nc(-c2ccc(-c3csnn3)cc2)cs1)[C@](O)(Cn1cncn1)c1cc(F)ccc1F` [Example 4, (2R,3R)-2-(2,5-Difluorophenyl)-3-{4-[4-(1,2,3-thiadiazol-4-yl)phenyl]thiazol-2-yl}-1-(1H-1,2,4-triazol-1-yl)butan-2-ol], the IC80 in experiment [1] came to 0.0028 µg/mL (≈ 0.00564 µM); in experiment [2] it was 0.17 µg/mL (≈ 0.342 µM); in experiment [3] it was 0.011 µg/mL (≈ 0.0222 µM); in experiment [4], 0.017 µg/mL (≈ 0.0342 µM).
For the compound `C[C@@H](c1nc(-c2ccc(-c3csnn3)cc2)ns1)[C@](O)(Cn1cncn1)c1cc(F)ccc1F` [Example 2, (2R,3R)-2-(2,5-Difluorophenyl)-3-{3-[4-(1,2,3-thiadiazol-4-yl)phenyl]-1,2,4-thiadiazol-5-yl}-1-(1H-1,2,4-triazol-1-yl)butan-2-ol], the IC80 in experiment [1] is 0.011 µg/mL (≈ 0.0221 µM); in experiment [2], 0.036 µg/mL (≈ 0.0724 µM); in experiment [3] it was 0.0014 µg/mL (≈ 0.00281 µM); in experiment [4], 0.047 µg/mL (≈ 0.0945 µM).
Take `Cc1csc(-c2ccc(-c3csc([C@H](C)[C@](O)(Cn4cncn4)c4ccc(F)cc4F)n3)cc2)n1` [Example 6, (2R,3R)-2-(2,4-Difluorophenyl)-3-{4-[4-(4-methylthiazol-2-yl)phenyl]thiazol-2-yl}-1-(1H-1,2,4-triazol-1-yl)butan-2-ol]: the IC80 in experiment [1] was 0.095 µg/mL (≈ 0.186 µM); in experiment [2] it was 0.67 µg/mL (≈ 1.31 µM); in experiment [3], 0.021 µg/mL (≈ 0.0412 µM); in experiment [4], 0.33 µg/mL (≈ 0.648 µM).

In general, IC80 refers to the point of the concentration-response curve where the effect stands at 80%.
